Source: patent publication US4352928A, “5,6-Alkylenepyrimidine derivative” (Mitsubishi Yuka Pharmaceutical Co., Ltd., priority 1979, dated 1982)
Read-outs that look alike come from different tables or passages of the source.

Key:
blood sugar level = assay: Blood Sugar Level Lowering Effect (2-deoxy-D-glucose induced high blood sugar level); assay type: in vivo, ICR-JCL mouse, male; conditions: po, mouse, 1 hour after 2-deoxy-D-glucose 500 mg/kg, read-out: Suppressive Ratio; for inhibition in vivo at 30 mg/kg: 30 mg/kg p.o.
Protocol: To a ICR-JCL mouse, male, having the weight ranging from 25 to 30 g. was orally administered the test sample and, after 15 minutes, 2-deoxy-D-glucose was administered into the cavity of the mouse in the amount of 500 mg/kg to induce a high blood sugar level. The blood was taken after 1 hour, and the blood sugar concentration was determined in the blood serum obtained upon centrifugation, by means of a commercially available test kit (trade name: Glucomesser, produced by Tokyo Zooki Kagaku Co., Ltd., Japan). The suppressive ratio was calculated based on the following equation. [formula] A: Blood sugar level of the positive control group B: Blood sugar level of the negative control group
C: Blood sugar level of the test sample administered group

inflammation = assay: Anti-Inflammatory Effect (carrageenan-induced swelling of the hind foot); assay type: in vivo, Wister male rat; conditions: po, rat, 3 hours after carrageenan, read-out: Suppressive Ratio; for inhibition in vivo at 50 mg/kg: 50 mg/kg p.o.
Protocol: A Wister male rat having the weight ranging from 120 to 150 g. was starved for 18 hours, and to this was then orally administered the test sample. After lapse of one hour, 0.05 ml. of 1% solution of carrageenan was administered through subcutaneous injection in the plantar surface of the right hind foot to produce inflammation. The volume of the right hind foot was measured prior to the injection of carrageenan and again at 3 hours after the administration through injection. The ratio of the increase of the foot volume was calculated to express in percent based on the measured values. The so calculated ratio was compared with the calculated ratio on the control data to give the dropsical swelling suppressive ratio.

blood pressure = assay: Anti-Hypertensive Effect (spontaneously hipertensive rat); assay type: in vivo, male; conditions: SHR
Protocol: To a spontaneously hipertensive rat (SHR), male, aged 20-30 weeks, blood pressure under contraction 150 mmHg. was orally administered the test sample. The mean blood pressure of the rat was measured under non-anesthetic conditions at 1, 3, 6 and 24 hours after the administration via cannula inserted into the main artery in the abdomen.

[1] = tested on: Blood Platelet Aggregation; assay: Blood Platelet Aggregation Suppressive Effect (collagen-induced, platelet rich plasma); assay type: cell-based, rabbit; conditions: Oryctolagus cuniculus, 2 min, read-out: Suppressive Ratio
Protocol: A rabbit was starved for 18 hours, and the veinal blood was taken from the carotid artery of the rabbit. […] The mixture was centrifuged at 200 G for 15 minutes to collect the platelet rich plasma (PRP). The residual portion was further centrifuged at 2000 G for 15 minutes to collect the platelet poor plasma (PPP). Subsequently, 250 μl. of the PRP was placed in a cuvette, and the methanol solution containing the test sample of the concentration set forth in Table 4 was added. Incubation was carried out for 2 minutes, and a collagen solution was added to the incubated solution to result in the final concentration of 3 μg./ml. so as to induce aggregation. The condition of the aggregation was measured in the Aggregation Meter (available from Shenco Co., Ltd.) and recorded.
The suppressive ratio was calculated based on the following equation. [formula] A: Maximum aggregation ratio observed when a solvent only was added. B: Maximum aggregation ratio observed when the test sample was added.

ICR-JCL mouse = assay: Acute Toxicity on Mouse; parameters: species or system male; conditions: in vivo, po
Protocol: A ICR-JCL mouse, male, was starved for 18 hours, and to the mouse was orally administered the test sample suspended in 1% tragacantha solution. The condition was observed during one week after the administration and the LD50 was calculated.

[2] = Japanese Patent Provisional Publication No. 35-12079/1960; cited from earlier work
[3] = Biochem. & Biophys. Res. Commu., 34, 495 (1969); cited from earlier work
[4] = Japanese Patent Provisional Publication No. 35-12079/1960; cited from earlier work; remark: listed apart in the source
[5] = 100 μM, rabbit PRP, collagen 3 μg/ml

Nc1nc(N2CCNCC2)nc2c1CCCCC2 [Compound No. 63, 2-Piperazino-4-amino-5,6-pentamethylenepyrimidine]
inhibition in vivo at 30 mg/kg (blood sugar level): 78.9%

Nc1nc(N2CCN(C(=S)Nc3ccccc3)CC2)nc2c1CCCC2 [compound 23, 2-(Phenylthiocarbamoylpiperazino)-4-amino-5,6-tetramethylenepyrimidine]
inhibition in vivo at 50 mg/kg (inflammation): 23.9%

Nc1nc(N2CCNCC2)nc2c1CCC2 [Compound No. 54, 2-Piperazino-4-amino-5,6-trimethylenepyrimidine]
inhibition in vivo at 30 mg/kg (blood sugar level): 107%

Nc1nc(N2CCN(c3ccccn3)CC2)nc2c1CCCC2 [Compound No. 32, 2-[4-(2-Pyridyl)piperazino]-4-amino-5,6-tetramethylenepyrimidine]
inhibition in vivo at 30 mg/kg (blood sugar level): 60.1% | Change of Blood Pressure at 3 Hours after Administration (blood pressure; 50 mg/kg p.o.): -18 mmHg.

OCCNc1nc(N2CCNCC2)nc2c1CCCC2 [compound 51, 2-Piperazino-4-(2-hydroxyethyl)amino-5,6-tetramethylenepyrimidine]
inhibition at 100 µM [1, 5]: 89.1%

O=CN1CCN(c2nc3c(c(N4CCOCC4)n2)CCCC3)CC1 [compound 47, 2-(4-Formylpiperazino)-4-morpholino-5,6-tetramethylenepyrimidine]
inhibition at 30 µM ([1]; rabbit PRP, collagen 3 μg/ml): 100%

Nc1nc(N2CCN(Cc3ccccc3)CC2)nc2c1CCCC2 [Compound No. 3, 2-(4-Benzylpiperazino)-4-amino-5,6-tetramethylenepyrimidine]
inhibition in vivo at 50 mg/kg (inflammation): 46%

C1CCc2c(nc(N3CCNCC3)nc2N2CCOCC2)C1 [compound 48, 2-Piperazino-4-morpholino-5,6-tetramethylenepyrimidine]
inhibition in vivo at 30 mg/kg (blood sugar level): 95.9% | inhibition at 30 µM ([1]; rabbit PRP, collagen 3 μg/ml): 46%

Nc1nc(N2CCN(C(=O)C=Cc3ccco3)CC2)nc2c1CCCC2 [Compound No. 14, 2-[4-{3-(Furan-2-yl)acryloyl}piperazino]-4-amino-5,6-tetramethylenepyrimidine]
inhibition in vivo at 30 mg/kg (blood sugar level): 60.2% | inhibition in vivo at 25 mg/kg (inflammation; 25 mg/kg p.o.): 53.9%

CN1CCN(c2nc3c(c(N4CCOCC4)n2)CCCC3)CC1 [compound 49, 2-(4-Methylpiperazino)-4-morpholino-5,6-tetramethylenepyrimidine]
inhibition at 30 µM ([1]; rabbit PRP, collagen 3 μg/ml): 95.2% | LD50 (ICR-JCL mouse): > 500 mg/kg

Nc1nc(N2CCN(Cc3ccccc3)CC2)nc2c1CCC2 [Compound No. 56, 2-(4-Benzylpiperazino)-4-amino-5,6-trimethylenepyrimidine]
inhibition in vivo at 30 mg/kg (blood sugar level): 44.5%

Nc1nc(N2CCN(C(=O)Nc3ccccc3)CC2)nc2c1CCCC2 [Compound No. 18, 2-(4-Phenylcarbamoylpiperazino)-4-amino-5,6-tetramethylenepyrimidine]
inhibition in vivo at 50 mg/kg (inflammation): 33.8% | Change of Blood Pressure at 3 Hours after Administration (blood pressure; 50 mg/kg p.o.): -17 mmHg.

CNc1nc(N2CCNCC2)nc2c1CCCC2 [Compound No. 35, 2-Piperazino-4-methylamino-5,6-tetramethylenepyrimidine]
inhibition in vivo at 30 mg/kg (blood sugar level): 77.4% | inhibition at 100 µM [1, 5]: 87.7%

C=CCN1CCN(c2nc(N)c3c(n2)CCCC3)CC1 [Compound No. 4, 2-(4-Allylpiperazino)-4-amino-5,6-tetramethylenepyrimidine]
inhibition in vivo at 50 mg/kg (inflammation): 51.2%

Nc1nc(N)c2c(n1)CCCC2 [2,4-diamino-5,6-tetramethylenepyrimidine]
antibacterial activity [2]: antibacterial activity | antagonism against pteridine [3]: has antagonism against pteridine | carcinostatic effect [4]: has a carcinostatic effect

Nc1nc(N2CCN(C(=O)C=Cc3ccccc3[N+](=O)[O-])CC2)nc2c1CCCC2 [compound 11, 2-[4-(2-Nitrocinnamoyl)piperazino]-4-amino-5,6-tetramethylenepyrimidine]
Change of Blood Pressure at 3 Hours after Administration (blood pressure; 50 mg/kg p.o.): -17 mmHg.

Nc1nc(N2CCN(c3ccc(Cl)cc3)CC2)nc2c1CCCC2 [compound 29, 2-[4-(4-Chlorophenyl)piperazino]-4-amino-5,6-tetramethylenepyrimidine]
inhibition in vivo at 10 mg/kg (blood sugar level; 10 mg/kg p.o.): 49.1% | inhibition in vivo at 50 mg/kg (inflammation): 46.8%

CN1CCN(c2nc3c(c(N4CCCC4)n2)CCCC3)CC1 [compound 46, 2-(4-Methylpiperazino)-4-pyrrolidino-5,6-tetramethylenepyrimidine]
inhibition at 30 µM ([1]; rabbit PRP, collagen 3 μg/ml): 100%

C1CCc2c(nc(N3CCNCC3)nc2N2CCCC2)C1 [compound 45, 2-Piperazino-4-pyrrolidino-5,6-tetramethylenepyrimidine]
inhibition at 30 µM ([1]; rabbit PRP, collagen 3 μg/ml): 72%

Nc1nc(N2CCNCC2)nc2c1CCCC2 [Compound No. 1, 2-Piperazino-4-amino-5,6-tetramethylenepyrimidine]
inhibition in vivo at 30 mg/kg (blood sugar level): 67.8% | inhibition at 100 µM [1, 5]: 100%

Nc1nc(N2CCN(C(=O)C=Cc3ccccc3)CC2)nc2c1CCCC2 [Compound No. 10, 2-(4-Cinnamoylpiperazino)-4-amino-5,6-tetramethylenepyrimidine]
inhibition in vivo at 50 mg/kg (inflammation): 79.9% | Change of Blood Pressure at 3 Hours after Administration (blood pressure; 25 mg/kg p.o.): -22 mmHg.

CN(C)c1nc(N2CCNCC2)nc2c1CCCC2 [compound 41, 2-Piperazino-4-dimethylamino-5,6-tetramethylenepyrimidine]
inhibition in vivo at 30 mg/kg (blood sugar level): 50.8%

Nc1nc(N2CCN(c3ccccc3)CC2)nc2c1CCCC2 [compound 28, 2-(4-Phenylpiperazino)-4-amino-5,6-tetramethylenepyrimidine]
inhibition in vivo at 50 mg/kg (inflammation): 52.7%

CC(=O)Oc1ccccc1C(=O)O [Aspirin, reference compound]
inhibition at 100 µM [1]: 100%
